Reference: patent US20230293526A1, “METHOD FOR TREATING CANCER WITH A REVERSE TRANSCRIPTASE INHIBITOR” (PrimeFour Therapeutics, Inc., priority 2020, published 2023)

Tests used:
Experiment in all cases: Cell proliferation CellTiterGlo Ex.2
Type in all cases: cell-based
NCI-H2009 = settings: Homo sapiens; NCI-H2009 (Lung), 72 h
Method: (§1) A dose response relationship on cell proliferation was assessed for Compound 13 on 140 tumor cell lines. Briefly, compound treatment of cells started one day after seeding with a final DMSO concentration of 0.100, and was performed by nanodrop-dispensing using a Tecan Dispenser. 0.10% DMSO (solvent) and Staurosporine (10 μM) served as high control (10000 viability) and low control (000 viability), respectively. Compound 13 was tested at 10, 3, 1, 0.3, 0.1, 0.03, 0.01, and 0.003 μM.
(§2) Cells were cultured in the appropriate media. For the assays, cells were seeded in white cell culture-treated flat and clear bottom multiwell plates and incubated at 37° C. overnight before compound was added. After incubation for 72 h at 37° C. at 5% or 10% CO2 dependent on the medium, cell plates were equilibrated to room temperature for one hour, CellTiterGlo reagent (Promega) was added and luminescence was measured approximately an hour later using a luminometer.
(§3) Raw data were converted into percent cell viability relative to the high and low control, which were set to 10000 and 000, respectively.

DV90 = settings: Homo sapiens, DV-90; DV90 (Lung), 72 h
Method: as §1, §2, §3

MV4-11 = settings: Homo sapiens; MV4-11 (Blood), 72 h
Method: as §1, §2, §3

SW480 = settings: Homo sapiens; SW480 (Colon), 72 h
Method: as §1, §2, §3

SK-ES-1 = settings: Homo sapiens, SK-ES1; SK-ES-1 (Bone), 72 h
Method: as §1, §2, §3

SK-OV3 = settings: Homo sapiens, SK-OV-3; SK-OV3 (Ovary), 72 h
Method: as §1, §2, §3

COV434 = COV434 (Ovary), 72 h
Method: as §1, §2, §3

SW620 = settings: Homo sapiens, SW-620; SW620 (Colon), 72 h
Method: as §1, §2, §3

NCI-H1563 = settings: Homo sapiens; NCI-H1563 (Lung), 72 h
Method: as §1, §2, §3

SU-DHL-5 = settings: Homo sapiens; SU-DHL-5 (Blood), 72 h
Method: as §1, §2, §3

SK-LU-1 = settings: Homo sapiens; SK-LU-1 (Lung), 72 h
Method: as §1, §2, §3

BxPC-3 = settings: Homo sapiens; BxPC-3 (Pancreas), 72 h
Method: as §1, §2, §3

T84 = settings: Homo sapiens; T84 (Colon), 72 h
Method: as §1, §2, §3

NCI-H838 = settings: Homo sapiens; NCI-H838 (Lung), 72 h
Method: as §1, §2, §3

KARPAS 299 = settings: Homo sapiens; KARPAS 299 (Blood), 72 h
Method: as §1, §2, §3

HCC 1569 = settings: Homo sapiens, HCC1569; HCC 1569 (Breast), 72 h
Method: as §1, §2, §3

SJSA-1 = settings: Homo sapiens; SJSA-1 (Bone), 72 h
Method: as §1, §2, §3

Caki-1 = settings: Homo sapiens; Caki-1 (Kidney), 72 h
Method: as §1, §2, §3

Detroit562 = settings: Homo sapiens, Detroit 562; Detroit562 (Head/Neck), 72 h
Method: as §1, §2, §3

NCI-H1581 = settings: Homo sapiens; NCI-H1581 (Lung), 72 h
Method: as §1, §2, §3

Caki-2 = settings: Homo sapiens; Caki-2 (Kidney), 72 h
Method: as §1, §2, §3

HT-29 = settings: Homo sapiens; HT-29 (Colon), 72 h
Method: as §1, §2, §3

LN229 = settings: Homo sapiens, LN-229; LN229 (Brain), 72 h
Method: as §1, §2, §3

H1299 = settings: Homo sapiens, NCI-H1299; H1299 (Lung), 72 h
Method: as §1, §2, §3

MKN-1 = settings: Homo sapiens; MKN-1 (Stomach), 72 h
Method: as §1, §2, §3

P31/FUJ = settings: Homo sapiens; P31/FUJ (Blood), 72 h
Method: as §1, §2, §3

NCI-H1437 = settings: Homo sapiens; NCI-H1437 (Lung), 72 h
Method: as §1, §2, §3

K562 = settings: Homo sapiens; K562 (Blood), 72 h
Method: as §1, §2, §3

DLD-1 = settings: Homo sapiens; DLD-1 (Colon), 72 h
Method: as §1, §2, §3

Mia PaCA 2 = settings: Homo sapiens; Mia PaCA 2 (Pancreas), 72 h
Method: as §1, §2, §3

Hs 746T = settings: Homo sapiens, Hs746T; Hs 746T (Stomach), 72 h
Method: as §1, §2, §3

PANC-1 = settings: Homo sapiens; PANC-1 (Pancreas), 72 h
Method: as §1, §2, §3

SK-MEL-3 = settings: Homo sapiens, SK-MEL3; SK-MEL-3 (Skin), 72 h
Method: as §1, §2, §3

C#C[C@]1(CO)O[C@@H](n2cnc3c(=O)[nH]c(N)nc32)C[C@@H]1O [compound 13]
IC50 (NCI-H2009): 1.23 µM
IC50 (DV90): 1.59 µM
IC50 (MV4-11): 0.21 µM
IC50 (SW480): > 10 µM
IC50 (SK-ES-1): 4.99 µM
IC50 (SK-OV3): 4 µM
IC50 (COV434): 4.41 µM
IC50 (SW620): 7.21 µM
IC50 (NCI-H1563): > 10 µM
IC50 (SU-DHL-5): 3.74 µM
IC50 (SK-LU-1): > 10 µM
IC50 (BxPC-3): 5.43 µM
IC50 (T84): > 10 µM
IC50 (NCI-H838): > 10 µM
IC50 (KARPAS 299): 4.07 µM
IC50 (HCC 1569): > 10 µM
IC50 (SJSA-1): 6.44 µM
IC50 (Caki-1): 9.76 µM
IC50 (Detroit562): 4.79 µM
IC50 (NCI-H1581): 2.97 µM
IC50 (Caki-2): > 10 µM
IC50 (HT-29): > 10 µM
IC50 (LN229): 2.23 µM
IC50 (H1299): 7.68 µM
IC50 (MKN-1): 8.76 µM
IC50 (P31/FUJ): 0.4 µM
IC50 (NCI-H1437): > 10 µM
IC50 (K562): > 10 µM
IC50 (DLD-1): > 10 µM
IC50 (Mia PaCA 2): > 10 µM
IC50 (Hs 746T): 5.39 µM
IC50 (PANC-1): > 10 µM
IC50 (SK-MEL-3): > 10 µM
